The values that follow come from patent publication US8293791B2, “Method of neuroprotection by pharmacological inhibition of AMP-activated protein kinase” (priority 2004, dated 2012).

“Also recorded” adds a separate entry of the source. Read-outs that look alike come from different tables or passages of the source.

The subject of series [1] is AMPKα phosphorylation (pAMPK). Description: Western blot analysis of pAMPK levels in brain hemispheres after MCAO or sham surgery. The series is classed as in vivo, mouse. Here is the method:
Cerebral ischemia was induced by 120 minutes of reversible right middle cerebral artery occlusion (MCAO) under halothane anesthesia followed by reperfusion for various times for male C57B6 mice (Charles River) or male rats, as described by McCullough, et al., Stroke, 32, 796-802 (2001) and McCullough, et al., J. Neuroscience, 24, pp. 257-268 (2004), respectively. Intra-ischemic and 22 hour post-reperfusion neurological deficits (NDS) were scored as follows: 0, no deficit; 1, forelimb weakness and torso turning to the ipsilateral side when held by tail; 2, circling to affected side; 3, unable to bear weight on affected side; and 4, no spontaneous locomotor activity or barrel rolling. Any animal without deficit was excluded from the study. At end-ischemia, the animal was briefly re-anaesthetized and reperfusion was initiated by filament withdrawal. Sham animals were subjected to the equivalent surgical preparation, but the suture was not advanced into the internal carotid. For the pharmacological neuroprotection studies, mice survived 22 hours after reperfusion, at which time behavioral scoring was done. The brain was then harvested for pathological examination with TTC histology (see Histopathology section). In separate animal cohorts, physiological measurements, femoral arterial blood pressure and cortical perfusion (laser Doppler flowmetry) were evaluated throughout MCAO and early reperfusion as described in the 2001 McCullough paper referenced above. Additional animals were exposed to ischemia or sham surgery after pharmacological or vehicle treatment and were sacrificed at 4 or 24 hours for Western blot analysis. Male nNOS and PARP-1 deficient mice (see, Huang, et al., Science, 265, 1883-1885 (1994); Eliasson, et al, Nat. Med, 3, 1089-1095 (1997)) were subjected to 2-hour right MCAO or sham surgery and compared to additional WT cohorts (C57-BL6 for nNOS−/− and SVEV for PARP−/−). Mouse and rat stroke and sham brain samples were obtained by rapid removal of the brain from the skulk resection of the cerebellum, followed by immediate dissection into the right (R) and left (L) hemispheres. Samples were flash frozen in liquid nitrogen. Samples from rats were further sub-dissected into core and penumbral regions for both hemispheres. Samples were stored at −80° C. until use. […] SDS detergent was added to a final concentration of 0.2%, and lysates were boiled for 5 min. After the supernatant was harvested, protein concentration was determined using a BCA kit (Bio Rad). 40 μg of protein was loaded per lane on a 4-15% gradient SDS-polyacrylamide gel, and transferred to a polyvinylidene difluoride membrane. Blots were successively probed, stripped and reprobed for antigen detection. Phosphorylation of AMPKα was determined using an anti-phospho-AMPKα (α1 and α2 Thr) antibody (1:1000, Cell Signaling). ACC (1:500), p-ACC (1:1000), pAkt (1:500), and Akt (1:500) antibodies were obtained from Upstate, Lake Placid, N.Y. Anti-AMPKα antibody (anti-α1 and α2, 1:1000; Cell Signaling), hsp-70 (1:1000; Santa Cruz), and β-actin (1:5000; Sigma) were used as loading controls. All blots were incubated overnight in primary antibody at 4° C. in TBS buffer containing 5% BSA and 0.1% Triton-X-100. The secondary antibody (goat anti-rabbit IgG, Chemicon) was diluted to 1:5,000, and ECL (pico) detection kit was used for signal detection.

For series [2], the system named is male C57B6 mice. Description: Infarction volume (TTC staining) after 2-hr reversible MCAO with 22 hr reperfusion. The series is classed as in vivo, mouse. Here is the method: Cerebral ischemia was induced by 120 minutes of reversible right middle cerebral artery occlusion (MCAO) under halothane anesthesia followed by reperfusion for various times for male C57B6 mice (Charles River) or male rats, as described by McCullough, et al., Stroke, 32, 796-802 (2001) and McCullough, et al., J. Neuroscience, 24, pp. 257-268 (2004), respectively. Intra-ischemic and 22 hour post-reperfusion neurological deficits (NDS) were scored as follows: 0, no deficit; 1, forelimb weakness and torso turning to the ipsilateral side when held by tail; 2, circling to affected side; 3, unable to bear weight on affected side; and 4, no spontaneous locomotor activity or barrel rolling. Any animal without deficit was excluded from the study. At end-ischemia, the animal was briefly re-anaesthetized and reperfusion was initiated by filament withdrawal. Sham animals were subjected to the equivalent surgical preparation, but the suture was not advanced into the internal carotid. For the pharmacological neuroprotection studies, mice survived 22 hours after reperfusion, at which time behavioral scoring was done. The brain was then harvested for pathological examination with TTC histology (see Histopathology section). In separate animal cohorts, physiological measurements, femoral arterial blood pressure and cortical perfusion (laser Doppler flowmetry) were evaluated throughout MCAO and early reperfusion as described in the 2001 McCullough paper referenced above. Additional animals were exposed to ischemia or sham surgery after pharmacological or vehicle treatment and were sacrificed at 4 or 24 hours for Western blot analysis. Male nNOS and PARP-1 deficient mice (see, Huang, et al., Science, 265, 1883-1885 (1994); Eliasson, et al, Nat. Med, 3, 1089-1095 (1997)) were subjected to 2-hour right MCAO or sham surgery and compared to additional WT cohorts (C57-BL6 for nNOS−/− and SVEV for PARP−/−). Infarction volume was analyzed by 2,3,5-triphenyltetrazolium staining in five 2-mm slices. Infarction volume was determined by video microscopy and image analysis (Inquiry 3, Loats Associates), as previously described by McCullough, et al., J. Neuroscience 23, pp. 8701-8705 (2003). All data are expressed as mean±SEM. Physiological variables and histology were analyzed by 1-way ANOVA with a post-hoc Newman-Keuls to correct for multiple comparisons. Post-ischemic neurological scores were analyzed by the Mann-Whitney U test. Values were considered statistically significant at *, p<0.05; **, p<0.01; ***, p<0.001

The subject of series [3] is male C57B6 mice. Particulars: mouse, in vivo.
In series [4] the test system is male C57B6 mice. Description: Neurological deficit score (NDS) after MCAO. It is filed as in vivo, mouse. As to the method:
Cerebral ischemia was induced by 120 minutes of reversible right middle cerebral artery occlusion (MCAO) under halothane anesthesia followed by reperfusion for various times for male C57B6 mice (Charles River) or male rats, as described by McCullough, et al., Stroke, 32, 796-802 (2001) and McCullough, et al., J. Neuroscience, 24, pp. 257-268 (2004), respectively. Intra-ischemic and 22 hour post-reperfusion neurological deficits (NDS) were scored as follows: 0, no deficit; 1, forelimb weakness and torso turning to the ipsilateral side when held by tail; 2, circling to affected side; 3, unable to bear weight on affected side; and 4, no spontaneous locomotor activity or barrel rolling. Any animal without deficit was excluded from the study. At end-ischemia, the animal was briefly re-anaesthetized and reperfusion was initiated by filament withdrawal. […] In separate animal cohorts, physiological measurements, femoral arterial blood pressure and cortical perfusion (laser Doppler flowmetry) were evaluated throughout MCAO and early reperfusion as described in the 2001 McCullough paper referenced above. […]
All data are expressed as mean±SEM. Physiological variables and histology were analyzed by 1-way ANOVA with a post-hoc Newman-Keuls to correct for multiple comparisons. Post-ischemic neurological scores were analyzed by the Mann-Whitney U test. […]

Series [5] deals with male C57B6 mice. Description: Physiological measurements, arterial blood pressure and laser Doppler flow during MCAO and early reperfusion. The settings on record: for MAP: averaged over the 2 hours of ischemia (all); for MAP / LDF (% BL) / HCO3 / Hg / PCO2 / PO2 / Ph: n=4/group; for LDF (% BL) / HCO3 / Hg / PCO2 / PO2 / Ph: intra-ischemic; for LDF (% BL): averaged over the 2 hours of ischemia.

`NC(=O)c1ncn([C@@H]2O[C@H](CO)[C@@H](O)[C@H]2O)c1N` [AICAR, 5-aminoimidazole-4-carboxamide ribonucleoside]: in series [1] (AICAR treated animals), the “pAMPK by 24 hr” value is “returned to baseline”. Besides, the “pAMPK 4 hr following stroke (2 hours of reperfusion)” value in series [1] (AICAR treated vs vehicle treated animals) was “elevations”. Further, in the series on male C57B6 mice [2] (AICAR 500 mg/kg i.p. at stroke onset, vs vehicle), the “total and cortical (CTX) stroke volumes” value is reported as “significant exacerbation”. Also, in the series with male C57B6 mice [3], the “CBF at 30 minutes after reperfusion” value is on record as 82.7 % of baseline, the HCO3 was determined as 22.9 ± 2.3, the Hg is 13.4 ± 0.9 and the “LDF (% BL)” value turned out to be 11.1 ± 1.2 % BL. In the series with male C57B6 mice [3], the MAP is on record as 77.7 ± 7.3 (all), the PCO2 is given as 39.7 ± 4.9, the PO2 amounted to 128 ± 15.2 and the Ph was 7.33 ± 0.11. In the series on male C57B6 mice [3], the “intraischemic CBF, vs controls” value was “no differences” and the “mean arterial pressure (MAP) at 15 minutes after injection” value came out at 69 mmHg.
With `C=C1C(=O)OC(CCCCCCCC)C1C(=O)O` (stereo not drawn) [C75], the “behavioral scores (score 0-4)” value in the series on male C57B6 mice [4] (C75 20 mg/kg i.p. immediately prior to onset of ischemia, vehicle 3.2±0.05) is on record as 2.0±0.03. Besides, the “LDF or physiological variables, vs vehicle” value in the series on male C57B6 mice [5] (C75 20 mg/kg i.p., n=4) was “no differences”. Further, in the series on male C57B6 mice [5], the MAP is 79.1 ± 6.5, the “LDF (% BL)” value is given as 10.6 ± 0.88 % BL, the HCO3 stood at 22.8 ± 1.2 and the Hg was 12.9 ± 0.5. Further, in the series on male C57B6 mice [5], the PCO2 is given as 47 ± 7.1, the PO2 is on record as 135 ± 14.2 and the Ph is recorded as 7.34 ± 0.08. In addition, the “increase in pAMPK levels at 4 hr (2 hr of reperfusion)” value in series [1] (C75 treated mice vs vehicle, 2-hour MCAO) is “blunted”. Also, the “pAMPK levels 24 hr following stroke” value in series [1] (C75 treated vs vehicle, both sham and stroke mice) is listed as “reduced; also recorded: Reductions”. Moreover, in the series with male C57B6 mice [2] (C75 20 mg/kg i.p. immediately prior to onset of ischemia, vs vehicle (RPMI), p<0.001), the “total and regional infarction volume” value is reported as “significant reduction”.
As for `c1cc(-c2cnn3cc(-c4ccc(OCCN5CCCCC5)cc4)cnc23)ccn1` [Compound C], the “severity of behavioral deficits at 24 hours (score 0-4)” value in the series with male C57B6 mice [4] (Compound C 20 mg/kg i.p. at stroke onset, vehicle 3.3±0.3) is given as 1.9±0.2. For the same compound, the “relative cerebral blood flow (CBF) by laser Doppler, intraischemic and during the 30 minutes after reperfusion, vs vehicle” value with male C57B6 mice [5] (Compound C 20 mg/kg i.p.) was “no difference”. Besides, the “relative cerebral blood flow (CBF) by laser Doppler, intraischemic period” value with male C57B6 mice [5] (Compound C 20 mg/kg i.p., vehicle 9.8±0.54, p=n.s.) is 10.6±0.9 % of baseline. Moreover, in the series on male C57B6 mice [5], the MAP amounted to 82.2 ± 5.9, the “LDF (% BL)” value was 10.6 ± 0.9 % BL, the HCO3 is 23.1 ± 0.08 and the Hg is on record as 12.7 ± 1.3. Moreover, in the series with male C57B6 mice [5], the PCO2 came out at 42.1 ± 3.1, the PO2 is 144.6 ± 14.3 and the Ph was found to be 7.36 ± 0.07. Moreover, in series [1] (Compound C treated mice vs vehicle, 2 hours MCAO), the “pAMPK levels 4 hr after infarction (2 hours of reperfusion)” value was “reduced”. In addition, the “cortical (CTX) infarct volume” value in the series on male C57B6 mice [2] (Compound C 20 mg/kg i.p. at stroke onset, 2-hr MCAO, 22 hr reperfusion, vehicle 63±3.4) is listed as 19.4±3.3 % non-ischemic hemisphere. Also, in the series with male C57B6 mice [2] (Compound C 20 mg/kg i.p. at stroke onset, 2-hr MCAO, 22 hr reperfusion, vehicle 64±5.7), the “striatal (CP) infarct volume” value is 21±3.9 % non-ischemic hemisphere. Besides, the total infarct volume entry in the series with male C57B6 mice [2] (Compound C 20 mg/kg i.p. at stroke onset, 2-hr MCAO, 22 hr reperfusion, vs vehicle) was “significantly reduced”.
